In patent publication US10561612B2, “Powdered formulations of cromolyn sodium and ibuprofen” (AZTherapies, Inc., priority 2017, dated 2020):
Read-outs that look alike come from different tables or passages of the source.

Legend:
Assay type in all cases: physicochemical
[1] = Moisture content by simultaneous thermal analyzer (STA); details: for % Moisture content / Enthalpy change: by STA
Method: (§1) Following micronization, Particle Size Distribution (PSD) analysis was performed by wet dispersion. […] FIGS. 8A and 8B illustrate the SEM imagery of micronized ibuprofen at a 10 μm scale for Batch 1 and Batch 2, respectively. FIGS. 9A and 9B illustrate the SEM imagery of micronized ibuprofen at a 2 μm scale for Batch 1 and Batch 2, respectively. FIGS. 10A and 10B illustrate the PXRD of micronized ibuprofen for Batch 1 and Batch 2, respectively. Table 7 contains the data for moisture content of micronized ibuprofen as determined by simultaneous thermal analyzer (STA), which tests both by DTA (Differential Temperature Analysis) and TG (Thermogravimetry). FIGS. 11A, 11B, and 11C illustrate the hygroscopicity as determined GVS for coarse ibuprofen (FIG. 11A), Batch 1 (FIG. 11B), and Batch 2 (FIG. 11C).

[2] = Stability study under accelerated degradation conditions, related substances; details: 40° C. and 75% relative humidity
Method: A stability study was performed to determine the compatibility of the combined APIs under accelerated degradation conditions. Separate control samples of micronized cromolyn sodium (Sample A) and micronized ibuprofen (Sample B) were included in the study to be used as a comparator to the blend of Cromolyn/Ibuprofen (Sample C). The study was performed at 40° C. and 75% relative humidity. Measurements were taken at time 0, 1 month, 2 months, and 3 months.

[3] = Particle size determination (PSD) of coarse ibuprofen; details: for D10 / D50 / D90: Effect of Dispersant
Excerpt: (§2) Coarse ibuprofen was characterized using PSD, PXRD, and GVS. […]
The average particle size determinations are illustrated in FIG. 5. The parameters and results were as follows: concentration 0.0406% Vol; span 1.493; uniformity 0.459; specific surface area 0.239 m^2/g; surface weighted mean […] 25.136 μm; and vol. weighted mean D[4,3] 62.020 μm.

[4] = Gravimetric vapor sorption (GVS); details: for weight gain upon exposure to moisture (moisture adsorbed on the surface): adsorption-desorption isotherm
Method: (§3) Ibuprofen was characterized to determine the parameters necessary to administer a therapeutically effective amount using an inhalation delivery system. The methodology included particle size determination (PSD); powdered x-ray crystallization diffraction (PXRD); and gravimetric vapor sorption (GVS).
as §1

[5] = Powdered x-ray diffraction (PXRD)
Excerpt: as §3, with “(GVS). The methods determined that coarse ibuprofen was crystalline and non-hygroscopic. The results are summarized in Example 3.” for “(GVS).”
as §2

[6] = Solubility and dispersibility seen in PSD by wet dispersion
Excerpt: The micronization may be performed on coarse ibuprofen using an air-jet mill or similar apparatus, such as a grinder or a mill. Other methods to micronize the ibuprofen include milling, bashing, cutting, or crushing. For example, two batches were micronized with an air-jet mill using a feed gas pressure of about 45 psi and a grinding pressure of about 45 psi. One batch was micronized a second time under the same conditions. Optionally, the ibuprofen may be micronized more than once. After micronization, particle size distribution was performed on the micronized ibuprofen by wet dispersion.
as §1

[7] = average particle size determination, FIG. 5

SMILES: CC(C)Cc1ccc(C(C)C(=O)O)cc1 (stereo not shown) [Batch 1, ibuprofen]
- % Moisture content [1]: 1.19%
- Enthalpy change [1]: 120.5 J/g

SMILES: CC(C)Cc1ccc(C(C)C(=O)O)cc1 (stereo not shown) [Batch 2, ibuprofen]
- % Moisture content [1]: 1.14%
- Enthalpy change [1]: 94.4 J/g

SMILES: O=C(O)c1cc(=O)c2c(OCC(O)COc3cccc4oc(C(=O)O)cc(=O)c34)cccc2o1 [Sample A, cromolyn sodium]
- Individual Related Substances ≥ 0.5%, cromolyn sodium ([2]; 1 month): 0.11%
- Total Impurities, cromolyn sodium ([2]; 1 month): 0.1%
- Individual Related Substances ≥ 0.5%, cromolyn sodium ([2]; 2 months): 0.11%
- Total Impurities, cromolyn sodium ([2]; 2 months): 0.1%
- Individual Related Substances ≥ 0.5%, cromolyn sodium ([2]; 3 months): 0.11%
- Total Impurities, cromolyn sodium ([2]; 3 months): 0.1%
- Individual Related Substances ≥ 0.5%, cromolyn sodium ([2]; Initial T = 0): 0.11%
- Total Impurities, cromolyn sodium ([2]; Initial T = 0): 0.1%

SMILES: CC(C)Cc1ccc(C(C)C(=O)O)cc1 (stereo not shown) [coarse ibuprofen, ibuprofen]
- D10 ([3]; T (Day) 0): 22.586 μm
- D50 ([3]; T (Day) 0): 57.693 μm
- D90 ([3]; T (Day) 0): 108.743 μm
- D10 ([3]; T (Day) 1): 22.401 μm
- D50 ([3]; T (Day) 1): 57.611 μm
- D90 ([3]; T (Day) 1): 108.724 μm
- span [3, 7]: 1.493
- specific surface area [3, 7]: 0.239 m^2/g
- surface weighted mean D[2,3] [3, 7]: 25.136 μm
- uniformity [3, 7]: 0.459
- vol. weighted mean D[4,3] [3, 7]: 62.020 μm
- hygroscopicity [4]: non-hygroscopic
- weight gain upon exposure to moisture (moisture adsorbed on the surface) [4]: < 0.2%
- weight gain upon exposure to moisture (moisture adsorbed on the surface) ([4]; listed as Ibuprofen): < 0.2%
- weight gain upon exposure to moisture (moisture adsorbed on the surface) ([4]; listed as ibuprofen): < 0.2%
- hygroscopicity ([4]; listed as Coarse ibuprofen): non-hydroscopic
- hygroscopicity ([4]; listed as ibuprofen): non-hydroscopic
- % Moisture content [1]: 0.20%
- Enthalpy change [1]: 131.0 J/g
- Inference (crystalline or amorphous) ([1]; from the enthalpy change): Crystalline
- crystallinity [5]: crystalline

SMILES: CC(C)Cc1ccc(C(C)C(=O)O)cc1 (stereo not shown) [micronized ibuprofen, ibuprofen]
- weight gain upon exposure to moisture (moisture adsorbed on the surface) ([4]; listed as Micronize ibuprofen): ~3%
- weight gain upon exposure to moisture (moisture adsorbed on the surface) ([4]; listed as Micronized ibuprofen): ~3%
- Individual Related Substances ≥ 0.5%, RRT 0.93, ibuprofen ([2]; 1 month): 0.07%
- Individual Related Substances ≥ 0.5%, RRT 1.11, ibuprofen ([2]; 1 month): 0.05%
- Total Impurities, ibuprofen ([2]; 1 month): 0.1%
- Individual Related Substances ≥ 0.5%, RRT 0.93, ibuprofen ([2]; 2 months): 0.07%
- Individual Related Substances ≥ 0.5%, RRT 1.11, ibuprofen ([2]; 2 months): <LOQ
- Total Impurities, ibuprofen ([2]; 2 months): 0.1%
- Individual Related Substances ≥ 0.5%, RRT 0.93, ibuprofen ([2]; 3 months): 0.07%
- Individual Related Substances ≥ 0.5%, RRT 1.11, ibuprofen ([2]; 3 months): <LOQ
- Total Impurities, ibuprofen ([2]; 3 months): 0.1%
- Individual Related Substances ≥ 0.5%, RRT 0.93, ibuprofen ([2]; Initial T = 0): 0.07%
- Total Impurities, ibuprofen ([2]; Initial T = 0): 0.1%
- dispersibility in water [6]: not dispersible in water
- solubility in organic solvents [6]: highly soluble in organic solvents
- solubility in surfactant containing aqueous media [6]: soluble in different surfactants containing aqueous media even at low concentrations of the surfactant
